This note sets out measurements from US10519154B2, “7-substituted 1-pyridyl-naphthyridine-3-carboxylic acid amides and use thereof” (Bayer Pharma Aktiengesellschaft, priority 2016, dated 2019).

Broadly, the EC50 is the concentration giving half of the maximal effect. A higher EC50 goes with a less potent agent.

Experiment [1] addresses T1, human M2 receptor (Homo sapiens, UniProt P08172).
T1 sequence (P08172 1-466): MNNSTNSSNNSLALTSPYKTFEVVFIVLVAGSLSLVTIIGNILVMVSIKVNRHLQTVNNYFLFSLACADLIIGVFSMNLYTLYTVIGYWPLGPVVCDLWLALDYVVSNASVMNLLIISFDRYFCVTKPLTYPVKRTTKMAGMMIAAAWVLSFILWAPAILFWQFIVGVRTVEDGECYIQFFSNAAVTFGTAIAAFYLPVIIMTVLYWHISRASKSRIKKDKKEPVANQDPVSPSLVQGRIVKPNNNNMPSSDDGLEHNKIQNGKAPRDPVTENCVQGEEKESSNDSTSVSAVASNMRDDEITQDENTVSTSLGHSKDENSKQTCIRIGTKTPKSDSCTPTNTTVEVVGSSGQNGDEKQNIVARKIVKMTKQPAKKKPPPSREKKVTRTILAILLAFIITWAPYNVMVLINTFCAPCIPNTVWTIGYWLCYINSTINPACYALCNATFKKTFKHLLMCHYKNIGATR
Description: Functional M2-GIRK1/4 activation test: positive cooperativity (alpha factor). The settings on record: shift of acetylcholine dose-response curve (Allosteric EC50 shift); CHO-DUKX-M2-GIRK cells.
Description: The binding of orthosteric agonists (endogenous ligand: acetylcholine) to the M2 receptor leads to receptor activation or a change in conformation of the receptor in the manner of a shift in equilibrium in favor of the active receptor conformation.
The agonist-induced change in conformation of the M2 receptor results in a Gαi protein activation. […] Under physiological conditions, the result is then a selective efflux of potassium from the cell along the electrochemical gradient. […] The extent of hyperpolarization can therefore be regarded as a measure of the activation of the M2 receptor.
The test cell used is a recombinant CHO-DUKX cell line which has been stably transfected with cDNA coding for the human M2 receptor and with cDNA coding for both GIRK1/4 subunits (CHO-DUKX-M2-GIRK). The transmembrane potential, or the relative changes in the transmembrane potential as a function of substance addition or M2 activation, is determined by means of a voltage-sensitive dye (FLIPR Membrane Potential Assay Kit Blue, Molecular Devices #R8034) and the measurement of cell fluorescence using a proprietary fluorescence imaging instrument.
In accordance with the desired test concentrations, the substances were pre-diluted in loading buffer (see above).
The sowing medium consisted of MEM alpha medium (supplemented with 5% FCS, 2% Glutamax, no genticin).
For the particular measurement, the medium was removed and the cells were laden with the voltage-sensitive dye for at least 6 min at room temperature (30 μl of loading buffer per 384-well). This was followed, in a first measurement, by the determination of the resting transmembrane potential for a period of 5 sec in 1 sec increments. Thereafter, 10 μl in each case of the test substances diluted in loading buffer are added, followed by a second measurement to determine the transmembrane potential for a period of 50 sec in 1 sec increments.
Finally, the cells are admixed with 10 μl of agonist solution (acetylcholine dissolved in loading buffer). In contrast to the EC50 determination of the test substances (see B-1.1), however, this is not done using one acetylcholine concentration; instead, every concentration of the test substance is combined with an acetylcholine 8-point dose-response curve. […] The M2-mediated GIRK1/4 activation or hyperpolarization is then monitored in a third measurement over a period of 60 sec in 1 sec increments. The shift in the acetylcholine dose-response curve in the presence of increasing concentrations of the test substance is analyzed and quantified by means of GraphPad PRISM (Allosteric EC50 shift). […] Positive cooperativity is the hallmark of a positive allosteric modulator. […] The greater the magnitude of the cc value, the greater the extent of cooperativity between orthosteric and allosteric.

The target of experiment [2] is T1, human M2 receptor. Description: Functional M2-GIRK1/4 activation test: allosteric potency (EC50) and efficiency. The following applies: for EC50: Receptor activity EC50, CHO-DUKX-M2-GIRK cells, acetylcholine at EC20, in some cases mean of two or more determinations; for Emax: read-out: Efficiency, boosting of the acetylcholine effect at EC20 acetylcholine concentration, CHO-DUKX-M2-GIRK cells.

On to `O=C(Nc1c(Cl)cccc1Cl)c1cn(-c2ncc(F)cc2F)c2nc(N3C[C@@H](O)[C@H](O)C3)ccc2c1=O` [Example 67, N-(2,6-Dichlorophenyl)-1-(3,5-difluoropyridin-2-yl)-7-[(3R,4R)-3,4-dihydroxypyrrolidin-1-yl]-4-oxo-1,4-dihydro-1,8-naphthyridine-3-carboxamide], for which, in experiment [1], the “Cooperativity (alpha factor)” value turned out to be 36. Further, in experiment [2], the EC50 was found to be 53 nM and the Emax was found to be 97%.
Consider `CC(C)(C)[C@@H](NC(=O)c1cn(-c2ncc(F)cc2F)c2nc(N3C[C@@H](O)CC3=O)ccc2c1=O)C(F)(F)F` [Example 73, 1-(3,5-Difluoropyridin-2-yl)-7-[(4S)-4-hydroxy-2-oxopyrrolidin-1-yl]-4-oxo-N-[(2R)-1,1,1-trifluoro-3,3-dimethylbutan-2-yl]-1,4-dihydro-1,8-naphthyridine-3-carboxamide], for which the “Cooperativity (alpha factor)” value in experiment [1] amounted to 68. Moreover, in experiment [2], it took 10 nM to reach a half-maximal effect (EC50) and the Emax amounted to 100%.
The corresponding values for `CC(C)(C)[C@H](NC(=O)c1cn(-c2ncc(F)cc2F)c2nc(N3C[C@@H](O)CC3=O)ccc2c1=O)C(F)(F)F` [Example 98, 1-(3,5-Difluoropyridin-2-yl)-7-[(4S)-4-hydroxy-2-oxopyrrolidin-1-yl]-4-oxo-N-[(2S)-1,1,1-trifluoro-3,3-dimethylbutan-2-yl]-1,4-dihydro-1,8-naphthyridine-3-carboxamide] are 56, 23 nM and 100%.
Turning to `O=C(N[C@H](C1CC1)C(F)(F)F)c1cn(-c2ncc(F)cc2F)c2nc(N3C[C@@H](O)CC3=O)ccc2c1=O` [Example 138, N-[(1R)-1-Cyclopropyl-2,2,2-trifluoroethyl]-1-(3,5-difluoropyridin-2-yl)-7-[(4S)-4-hydroxy-2-oxopyrrolidin-1-yl]-4-oxo-1,4-dihydro-1,8-naphthyridine-3-carboxamide], the “Cooperativity (alpha factor)” value in experiment [1] is 61. Moreover, in experiment [2], the EC50 is 70 nM and the Emax was determined as 98.5%.
For the compound `CC[C@@H](NC(=O)c1cn(-c2ncccc2F)c2nc(N3C[C@@H](O)CC3=O)ccc2c1=O)C(F)(F)F` [Example 140, 1-(3-Fluoropyridin-2-yl)-7-[(4S)-4-hydroxy-2-oxopyrrolidin-1-yl]-4-oxo-N-[(2R)-1,1,1-trifluorobutan-2-yl]-1,4-dihydro-1,8-naphthyridine-3-carboxamide], the “Cooperativity (alpha factor)” value in experiment [1] is listed as 47. Moreover, in experiment [2], the midpoint of the response, the EC50, lay at 253 nM and the Emax came to 92%.
